Patent publication US11450805B2, “Compound, semiconductor material, and methods for manufacturing coating and semiconductor using the same” (Merck Patent GmbH, priority 2016, dated 2022)

Assay: Evaluation of solubility of solute in solvents (visual inspection)
Assay type: physicochemical
Conditions: stirring at room temperature for 60 minutes; for Solubility, solvent PGME:EL = 7:3: PGME:EL = 7:3 volume ratio; for Solubility, solvent PGME:PGMEA = 7:3: PGME:PGMEA = 7:3 volume ratio
Procedure: Comparative compound 1 was added as a solute to each of the various solvents listed in Table 1 in an amount of 10% by mass, and mixed with the solvent by stirring at room temperature for 60 minutes. When 10% by mass of the solute was not fully dissolved in the solvent, the amount of the solute added was changed to 1% by mass, and 1% by mass of the solute was mixed with the solvent in the same manner as above.
The state of dissolution of the solute was visually inspected and evaluated as follows.
A: Even when the amount of the solute mixed with the solvent was 10% by mass, the solute was fully dissolved.
B: When the amount of the solute mixed with the solvent was 10% by mass, the solute was not fully dissolved and some of it remained undissolved, while when the amount of the solute mixed with the solvent was 1% by mass, the solute was fully dissolved.
C: Even when the amount of the solute mixed with the solvent was 1% by mass, the solute was not fully dissolved and some of it remained undissolved.
Experiments were conducted in the same manner as above, except for changing the solute from comparative compound 1 to other compounds listed in Table 1.

Row | SMILES | Solubility, solvent PGME:EL = 7:3 | Solubility, solvent PGME:PGMEA = 7:3 | Solubility, solvent PGME
1 | c1ccc(-c2c(-c3ccccc3)c(-c3ccccc3)c(-c3ccc(-c4c(-c5ccccc5)c(-c5ccccc5)c(-c5ccccc5)c(-c5ccccc5)c4-c4ccccc4)cc3)c(-c3ccccc3)c2-c2ccccc2)cc1 [Comparative compound 1, reference compound] | C (Even when the amount of the solute mixed with the solvent was 1% by mass, the solute was not fully dissolved and some of it remained undissolved.) | C (Even when the amount of the solute mixed with the solvent was 1% by mass, the solute was not fully dissolved and some of it remained undissolved.) | C (Even when the amount of the solute mixed with the solvent was 1% by mass, the solute was not fully dissolved and some of it remained undissolved.)
2 | Oc1ccc(-c2c(-c3ccccc3)c(-c3ccccc3)c(-c3ccc(-c4c(-c5ccccc5)c(-c5ccccc5)c(-c5ccc(O)cc5)c(-c5ccc(O)cc5)c4-c4ccccc4)cc3)c(-c3ccccc3)c2-c2ccc(O)cc2)cc1 [G1] | A (Even when the amount of the solute mixed with the solvent was 10% by mass, the solute was fully dissolved.) | A (Even when the amount of the solute mixed with the solvent was 10% by mass, the solute was fully dissolved.) | A (Even when the amount of the solute mixed with the solvent was 10% by mass, the solute was fully dissolved.)
3 | Oc1ccc(-c2c(-c3ccccc3)c(-c3ccccc3)c(-c3c4ccccc4c(-c4c(-c5ccccc5)c(-c5ccccc5)c(-c5ccc(O)cc5)c(-c5ccc(O)cc5)c4-c4ccccc4)c4ccccc34)c(-c3ccccc3)c2-c2ccc(O)cc2)cc1 [G2] | A (Even when the amount of the solute mixed with the solvent was 10% by mass, the solute was fully dissolved.) | A (Even when the amount of the solute mixed with the solvent was 10% by mass, the solute was fully dissolved.) | A (Even when the amount of the solute mixed with the solvent was 10% by mass, the solute was fully dissolved.)
4 | Oc1ccc(-c2c(-c3ccccc3)cc(-c3ccc(-c4cc(-c5ccccc5)c(-c5ccc(O)cc5)c(-c5ccc(O)cc5)c4-c4ccccc4)cc3)c(-c3ccccc3)c2-c2ccc(O)cc2)cc1 [G3] | A (Even when the amount of the solute mixed with the solvent was 10% by mass, the solute was fully dissolved.) | A (Even when the amount of the solute mixed with the solvent was 10% by mass, the solute was fully dissolved.) | A (Even when the amount of the solute mixed with the solvent was 10% by mass, the solute was fully dissolved.)
5 | Oc1ccc(-c2c(-c3ccc(O)cc3)c(-c3ccc(O)cc3)c(-c3ccc(O)cc3)c(-c3ccc(O)cc3)c2-c2ccc(O)cc2)cc1 [G5] | A (Even when the amount of the solute mixed with the solvent was 10% by mass, the solute was fully dissolved.) | A (Even when the amount of the solute mixed with the solvent was 10% by mass, the solute was fully dissolved.) | A (Even when the amount of the solute mixed with the solvent was 10% by mass, the solute was fully dissolved.)
6 | Oc1ccc(-c2c(-c3ccccc3)c(-c3ccccc3)c(-c3ccc(-c4ccc(-c5c(-c6ccccc6)c(-c6ccccc6)c(-c6ccc(O)cc6)c(-c6ccc(O)cc6)c5-c5ccccc5)cc4)cc3)c(-c3ccccc3)c2-c2ccc(O)cc2)cc1 [G6] | A (Even when the amount of the solute mixed with the solvent was 10% by mass, the solute was fully dissolved.) | A (Even when the amount of the solute mixed with the solvent was 10% by mass, the solute was fully dissolved.) | A (Even when the amount of the solute mixed with the solvent was 10% by mass, the solute was fully dissolved.)
7 | Oc1ccc(-c2c(-c3ccccc3)c(-c3ccccc3)c(-c3c(-c4ccccc4)c(-c4c(-c5ccccc5)c(-c5ccccc5)c(-c5ccc(O)cc5)c(-c5ccc(O)cc5)c4-c4ccccc4)c(-c4ccccc4)c(-c4c(-c5ccccc5)c(-c5ccccc5)c(-c5ccc(O)cc5)c(-c5ccc(O)cc5)c4-c4ccccc4)c3-c3ccccc3)c(-c3ccccc3)c2-c2ccc(O)cc2)cc1 [G7] | B (When the amount of the solute mixed with the solvent was 10% by mass, the solute was not fully dissolved and some of it remained undissolved, while when the amount of the solute mixed with the solvent was 1% by mass, the solute was fully dissolved.) | B (When the amount of the solute mixed with the solvent was 10% by mass, the solute was not fully dissolved and some of it remained undissolved, while when the amount of the solute mixed with the solvent was 1% by mass, the solute was fully dissolved.) | A (Even when the amount of the solute mixed with the solvent was 10% by mass, the solute was fully dissolved.)
8 | Nc1ccc(-c2c(-c3ccccc3)c(-c3ccccc3)c(-c3ccccc3)c(-c3ccccc3)c2-c2ccc(N)cc2)cc1 [G8] | A (Even when the amount of the solute mixed with the solvent was 10% by mass, the solute was fully dissolved.) | A (Even when the amount of the solute mixed with the solvent was 10% by mass, the solute was fully dissolved.) | A (Even when the amount of the solute mixed with the solvent was 10% by mass, the solute was fully dissolved.)
9 | COc1ccc(-c2c(-c3ccccc3)c(-c3ccccc3)c(-c3ccc(-c4c(-c5ccccc5)c(-c5ccccc5)c(-c5ccc(OC)cc5)c(-c5ccc(OC)cc5)c4-c4ccccc4)cc3)c(-c3ccccc3)c2-c2ccc(OC)cc2)cc1 [Intermediate G0, reference compound] | C (Even when the amount of the solute mixed with the solvent was 1% by mass, the solute was not fully dissolved and some of it remained undissolved.) | C (Even when the amount of the solute mixed with the solvent was 1% by mass, the solute was not fully dissolved and some of it remained undissolved.) | C (Even when the amount of the solute mixed with the solvent was 1% by mass, the solute was not fully dissolved and some of it remained undissolved.)
